From paper PMC11294338 (Nature Communications, 2024)

Tests used:
[1] = tested on: SARS-CoV-2 (USA-WA1/2020) replicon in HuH-7 cells; format: cell-based
SARS-CoV-2 [2] = conditions: in vivo; cited from earlier work
SARS-CoV-2 [3] = conditions: human, in vivo; cited from earlier work

Row | SMILES | EC50 [1] | transmission to untreated contact animals (SARS-CoV-2 [2]) | post-exposure prophylactic prevention of transmission versus placebo (SARS-CoV-2 [3])
1 | CC(C)(C)[C@H](NC(=O)C(F)(F)F)C(=O)N1C[C@H]2[C@@H]([C@H]1C(=O)N[C@H](C#N)C[C@@H]1CCNC1=O)C2(C)C [Nirmatrelvir] | 15 nM | – | –
2 | CC(C)C(=O)OC[C@H]1O[C@@H](n2ccc(NO)nc2=O)[C@H](O)[C@@H]1O [molnupiravir] | – | prevented such transmission | neither was able to reach statistical significance over placebo
